Consider twelve compounds from patent publication US8362011B2, “Tricyclic triazolic compounds” (Laboratories del Dr. Esteve, S.A., priority 2007, dated 2013).

The target in one series is T1, σ1-receptor (Cavia porcellus, UniProt Q60492).
T1 construct: Guinea pig brains were homogenized in 10 vols; (w/v) of Tris-HCl 50 mM 0.32 M sucrose; from tissue; host or cells: guinea pig brain membranes
As to the kind of experiment: σ1-receptor binding assay, [3H]-(+)-pentazocine, guinea pig brain membranes. Conditions: [3H]-(+)-pentazocine 5.0 nM; for % Displacement (10^−6 M): 10^−6 M compound. On the procedure:
Brain membrane preparation and binding assays for the σ1-receptor were performed as described (DeHaven-Hudkins, D. L., L.C. Fleissner, and F. Y. Ford-Rice, 1992, Characterization of the binding of [^3H](+)pentazocine to σ recognition sites in guinea pig brain, Eur. J. Pharmacol. 227, 371-378) with some modifications. Guinea pig brains were homogenized in 10 vols. (w/v) of Tris-HCl 50 mM 0.32 M sucrose, pH 7.4, with a Kinematica Polytron PT 3000 at 15000 r.p.m. for 30 s. The homogenate was centrifuged at 1000 g for 10 min at 4° C. and the supernatants collected and centrifuged again at 48000 g for 15 min at 4° C. The pellet was resuspended in 10 volumes of Tris-HCl buffer (50 mM, pH 7.4), incubated at 37° C. for 30 min, and centrifuged at 48000 g for 20 min at 4° C. Following this, the pellet was re-suspended in fresh Tris-HCl buffer (50 mM, pH 7.4) and stored on ice until use.
The radioligand used was [^3H]-(+)-pentazocine at 5.0 nM and the final volume was 200 μl. The incubation was initiated with the addition of 100 μA of membrane at a final tissue concentration of approximately 5 mg tissue net weight/mL and the incubation time was 150 m. at 37° C. After incubation, the membranes were collected onto pretreated glass fiber filterplate (MultiScreen-FC, Millipore), with polyethylenimine 0.1%. The filters were washed two times with 200 μA of washing buffer (50 mM Tris Cl, pH=7.4) and then 25 μA of Ecoscint H liquid scintillation cocktail were added. Microplates were allowed to set for several hours and then quantified by liquid scintillation spectrophotometry (1450 Microbeta, Wallac). Nonspecific binding was determined with 1 μM haloperidol.

Structures are written as SMILES. Where “and” joins values, the source holds several entries; their conditions need not be identical. Equal entries are not always repeated.

T1 sequence (Q60492 whole entry): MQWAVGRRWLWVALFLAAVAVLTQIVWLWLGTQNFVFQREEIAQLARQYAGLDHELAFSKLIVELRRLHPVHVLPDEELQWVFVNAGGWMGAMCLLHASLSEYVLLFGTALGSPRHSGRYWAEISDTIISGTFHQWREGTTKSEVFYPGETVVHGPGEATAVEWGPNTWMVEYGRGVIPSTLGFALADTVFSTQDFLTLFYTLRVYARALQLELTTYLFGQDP

In turn, `COc1ccc(CN2C[C@@H]3[C@@H](C2)OCc2c(C)nnn23)cc1` (relative stereo) [Example 2, (5a,8a-trans)-7-(4-methoxybenzyl)-3-methyl-4,5a,6,7,8,8a-hexahydro pyrrolo[3,4-b][1,2,3]triazolo[1,5-d][1,4]oxazine] registered a Ki at σ1-receptor of more than 1000 nM.

Compound `CCc1nnn2c1CO[C@@H]1CN(Cc3ccc(OC)cc3)C[C@H]12` (relative stereo) [Example 3, (5a,8a-trans)-3-ethyl-7-(4-methoxybenzyl)-4,5a,6,7,8,8a-hexahydro pyrrolo[3,4-b][1,2,3]triazolo[1,5-d][1,4]oxazine] showed a Ki on σ1-receptor of 298 ± 76.2 nM.

`c1ccc(CN2C[C@@H]3[C@@H](C2)OCc2cnnn23)cc1` (relative stereo) [Example 4, (5a,8a-trans)-7-benzyl-4,5a,6,7,8,8a-hexahydropyrrolo[3,4-b][1,2,3] triazolo[1,5-d][1,4]oxazine] showed a melting point of 101 to 102 °C. For the same compound, the “% Displacement (10^−6 M)” value on σ1-receptor was less than 50%.

Compound `Cc1nnn2c1CO[C@@H]1CN(Cc3ccccc3)C[C@H]12` (relative stereo) [Example 5, (5a,8a-trans)-7-benzyl-3-methyl-4,5a,6,7,8,8a-hexahydropyrrolo[3,4-b][1,2,3]triazolo[1,5-d][1,4]oxazine] came in with a melting point of 103 to 104 °C. On σ1-receptor, this compound registered a Ki of more than 1000 nM.

`FC(F)(F)c1ccc(-c2nnn3c2CO[C@@H]2CN(Cc4ccccc4)C[C@H]23)cc1` (relative stereo) [Example 6, (5a,8a-trans)-7-benzyl-3-(4-(trifluoromethyl)phenyl)-4,5a,6,7,8,8a-hexa hydropyrrolo[3,4-b][1,2,3]triazolo[1,5-d][1,4]oxazine] registered a melting point of 137 to 138 °C. The compound further returned a Ki at σ1-receptor of 31.3 ± 8.7 nM.

As for `CCc1nnn2c1CO[C@@H]1CN(Cc3ccccc3)C[C@H]12` (relative stereo) [Example 8, (5a,8a-trans)-7-benzyl-3-ethyl-4,5a,6,7,8,8a-hexahydropyrrolo[3,4-b][1,2,3]triazolo[1,5-d][1,4]oxazine], the melting point lay within 106 to 107 °C. The Ki at σ1-receptor came out at 375 ± 1.6 nM.

`Clc1ccc(-c2nnn3c2CO[C@@H]2CN(Cc4ccccc4)C[C@H]23)cc1` (relative stereo) [Example 9, (5a,8a-trans)-7-benzyl-3-(4-chlorophenyl)-4,5a,6,7,8,8a-hexahydro pyrrolo[3,4-b][1,2,3]triazolo[1,5-d][1,4]oxazine] registered a melting point of 197 to 198 °C. The “% Displacement (10^−6 M)” value at σ1-receptor worked out at 87%.

`c1ccc(CN2C[C@@H]3[C@@H](C2)OCc2c(-c4ccccc4)nnn23)cc1` (relative stereo) [Example 11, (5a,8a-trans)-7-benzyl-3-phenyl-4,5a,6,7,8,8a-hexahydropyrrolo[3,4-b][1,2,3]triazolo[1,5-d][1,4]oxazine]: the melting point is 154 to 155 °C. Also, at σ1-receptor, the Ki is 26.9 ± 4.4 nM.

As for `c1ccc(-c2nnn3c2CO[C@@H]2CNC[C@H]23)cc1` (relative stereo) [Example 13, (5a,8a-trans)-3-phenyl-4,5a,6,7,8,8a-hexahydropyrrolo[3,4-b][1,2,3] triazolo[1,5-d][1,4]oxazine], the melting point lay within 165 to 167 °C. Moreover, the Ki at σ1-receptor was 283 nM and 262 nM.

On to `O=C(CCc1ccccc1)N1C[C@@H]2[C@@H](C1)OCc1c(-c3ccccc3)nnn12` (relative stereo) [Example 28, 3-phenyl-1-((5a,8a-trans)-3-phenyl-5a,6,8,8a-tetrahydropyrrolo[3,4-b][1,2,3]triazolo[1,5-d][1,4]oxazin-7(4H)-yl)propan-1-one], for which the melting point fell in the range of 205 to 206 °C. The same compound yielded a Ki on σ1-receptor of 563 nM.

As to `CCCC(=O)N1C[C@@H]2[C@@H](C1)OCc1c(-c3ccccc3)nnn12` (relative stereo) [Example 29, 1-((5a,8a-trans)-3-phenyl-5a,6,8,8a-tetrahydropyrrolo[3,4-b][1,2,3]triazolo[1,5-d][1,4]oxazin-7(4H)-yl)butan-1-one], the melting point is 202 to 204 °C. Also, the Ki at σ1-receptor is 334 nM and 341 nM.

As for `CCCCCN1C[C@@H]2[C@@H](C1)OCc1c(-c3ccccc3)nnn12` (relative stereo) [Example 41, (5a,8a-trans)-7-pentyl-3-phenyl-4,5a,6,7,8,8a-hexahydropyrrolo[3,4-b][1,2,3]triazolo[1,5-d][1,4]oxazine], the Ki at σ1-receptor was 5.47 nM and 6.79 nM.

The term Ki denotes the dissociation constant of the complex between target and ligand, obtained from inhibition or displacement. Higher therefore signals lower affinity. For orientation: melting point means the temperature, or range, at which the solid turns liquid.
